Measurements taken from patent US20180077929A1, “METHODS AND SYSTEMS FOR TREATING MEDICAL DEVICES AND FLUIDS” (priority 2016, published 2018).
Where “and” joins values, the source holds several entries; their conditions need not be identical. Equal values may be shown once.

Key:
[1] = Animal study: intraperitoneal endotoxin mixed with calcium stearate; assay type: in vivo; conditions: female rats, 4 days, endotoxin alone: severe toxicity
Method: An animal study was conducted with 30 female rats with weights ranging from 250-300 g and acclimated for 5 days. All rats were dosed with intraperitoneal injections using 18 gauge needles. The rats were broken into 6 groups. A negative control (NC-1) dosed 5 rats with 5 mL of normal saline solution. […] A positive control (PC-1) dosed 5 rats with 2.5 million EU in a 5 mL saline solution. A second positive control (PC-2) was conducted dosing 5 rats with 5 million endotoxin units in a 5 mL normal saline solution. Two experimental test groups were conducted.
The negative control samples also had no toxicity.

[2] = Detection of LPS after adding CaSt powder to water spiked with LPS (Kinetic Chromogenic Method, Endosafe MCS); assay type: biochemical
Method: Water and aqueous solutions (containing LPS with various sources of endotoxin) were exposed to calcium stearate [CaSt] […] 5 mL of water solution of known endotoxin concentration (generated by spiking endotoxin-free water with water solution of known endotoxin concentration) was added to the each test tube, vortexed vigorously (1 minute) using Fisher Scientific Digital Vortex Mixer, and then placed in a warm water bath (37° C.) for 1 hour. After 1 hour, the tubes were removed from warm water bath and vortexed vigorously (1 minute). Sterile syringes with needles were used to extract the solution without removing the calcium stearate. This solution was then tested for endotoxin levels. Kinetic Chromogenic Method for Endotoxin Quantitation, using Endosafe MCS Multi Cartridge System by Charles River Laboratories, Charleston S.C.
The total LPS added to test tubes was about 5 EU, with the detected LPS after the treatment was 3% to 8% of the initial concentration.
The total LPS added to test tubes was about 14400 EU, with the detected LPS after the treatment was 0.07%-0.08% of the initial concentration.
The total LPS added to test tubes was about 14400 EU, with the detected LPS after the treatment was CaSt dependent and was a function of the amount of CaSt added. CaSt addition ranged about 100 fold from 0.0027 g to 0.25 g, with the detected LPS after the treatment was ranging from 77% to 0.19% of respectively as a percent of the initial concentration. […] In summary, there are three factors that drive the stearates performance to remove/neutralize endotoxins. These three factors, not necessarily listed in order of importance, are concentration, time of exposure, and energy in solution at the micro level.

[3] = Testing of various sources of LPS with CaSt in water; assay type: biochemical
Method: Therefore, for the methods described above, the activity of endotoxin was tested with various sources of endotoxin. Laboratory grown endotoxin is purified while natural endotoxin will be present with other substances such as proteins and phospholipids.
The laboratory grown endotoxin used in this experiment was supplied by Charles River Laboratories.
Natural airborne endotoxin was captured using an electret filter. Electret filters are produced from dielectric polymer fibers that develop an electrical charge when air flows past them, capturing the endotoxin along with other particles. The endotoxin was extracted from the filter by placing the filter in endotoxin free water for an extended period of time.
Two other natural sources of endotoxin were obtained from water samples in the surrounding environment. One source was a pool of sitting rain water and other being a small puddle on the side of the Raritan River. The sitting rain water (SRW) was purified via chlorination and 0.2 μm filter. The Raritan River Water (RRW) was not altered in anyway. The same testing procedure was conducted for all sources of endotoxin.

[4] = Detection of LPS in water in presence of CaSt and EDTA and Tween 20; assay type: biochemical; conditions: 8330 EU spiked
Method: Further testing was performed with addition of EDTA and Polysorbate 20 reagents to verify permanent removal of LPS/endotoxin activity, by adding EDTA and Polysorbate 20 to the extraction solutions to test for potential recovery of endotoxin activity when introduced to these two substances.
The testing was performed in aqueous solutions with added EDTA and Polysorbate 20, with suspended CaSt present in some solutions in varying quantities. […] The tubes were vortexed for 1 minute and placed in a 37 C bath for 1 hour. The tubes were removed from the bath and again vortexed for 1 minute. The solutions were diluted and tested for endotoxin using the Kinetic Chromogenic Method for Endotoxin Quantitation, Charles River Laboratories, Charleston S.C. […] These samples were rigorously vortexed and tested using the Kinetic Chromogenic Method for Endotoxin Quantitation, Charles River Laboratories, Charleston S.C.

[5] = Efficacy of sonicated CaSt suspension stored 1 month; assay type: biochemical
Method: 10 ml of LRW water (LAL reagent water, contains no endotoxin) containing 0.04 g of CaSt suspension was sonicated using Misonix Probe Sonicator, Model: S-4000, Amplitude: 30, Time: 30 seconds and then the suspension was stored for 1 month at ambient temperature. Then 1 ml of the above suspension was added to 10 ml endotoxin containing water SRW and the resulting endotoxin concentrations in the combined solution measured after 15 min and 30 min, with the results presented in Table 14.

[6] = 0.0027 g CaSt in 5 mL water, 14,400 EU spiked
[7] = 0.0108 g CaSt in 5 mL water, 14,400 EU spiked
[8] = 0.0518 g CaSt in 5 mL water, 14,400 EU spiked
[9] = 0.2502 g CaSt in 5 mL water, 14,400 EU spiked
[10] = 0.254-0.2607 g CaSt powder in 5 mL water, 14,400 EU spiked, 0.254 g CaSt powder added
[11] = 0.254-0.2607 g CaSt powder in 5 mL water, 14,400 EU spiked, 0.2607 g CaSt powder added
[12] = Charles River Standard, 8330 EU spiked, 0.05 g Calcium Stearate
[13] = Charles River Standard, 8330 EU spiked, 0.15 g Calcium Stearate
[14] = Charles River Standard, 8330 EU spiked, 0.25 g Calcium Stearate
[15] = Dust Filter Extraction Water, 9280 EU spiked, 0.01 g Calcium Stearate
[16] = Dust Filter Extraction Water, 9280 EU spiked, 0.25 g Calcium Stearate
[17] = RRW endotoxin, 4340 EU spiked, 0.01 g Calcium Stearate
[18] = RRW endotoxin, 4340 EU spiked, 0.1 g Calcium Stearate
[19] = RRW endotoxin, 4340 EU spiked, 0.25 g Calcium Stearate
[20] = SRW endotoxin, 11100 EU spiked, 0.01 g Calcium Stearate
[21] = CaSt suspension 0.007 g in 5 mL
[22] = CaSt suspension 0.007 g with 0.1M EDTA and 0.05% Tween20
[23] = CaSt suspension 0.018 g in 5 mL
[24] = CaSt suspension 0.018 g with 0.1M EDTA and 0.05% Tween20
[25] = CaSt suspension 0.028 g in 5 mL
[26] = CaSt suspension 0.028 g with 0.1M EDTA and 0.05% Tween20

## Calcium Stearate
[1]; T-1: 2,500,000 EU + 0.2 g Calcium Stearate in 5.0 mL normal saline dosed IP
  Results (toxicity observed): No Toxicity
[1]; T-1: 2,500,000 EU + 0.2 g Calcium Stearate in 5.0 mL normal saline dosed IP, listed as calcium stearate
  Results (toxicity observed): no toxicity or adverse effects
[1]; T-2: 5,000,000 EU + 0.2 g Calcium Stearate in 5.0 mL normal saline dosed IP
  Results (toxicity observed): No Toxicity
[1]; T-2: 5,000,000 EU + 0.2 g Calcium Stearate in 5.0 mL normal saline dosed IP, listed as calcium stearate
  Results (toxicity observed): no toxicity or adverse effects
[2]; [6]
  Endotoxin Detected: 11,055 EU
  Percent of detected Endotoxin vs. initial concentration: 77% and 76.77%
[2]; [7]
  Endotoxin Detected: 2,925 EU
  Percent of detected Endotoxin vs. initial concentration: 20% and 20.31%
[2]; [8]
  Endotoxin Detected: 9.4 EU
  Percent of detected Endotoxin vs. initial concentration: 0.07%
[2]; [9]
  Endotoxin Detected: 26.7 EU
  Percent of detected Endotoxin vs. initial concentration: 0.19%
[2]; 0.252-0.272 g CaSt powder in 5 mL water, 5.208 EU spiked, 37° C. 1 hour, 0.252 g CaSt powder added
  Percent of detected Endotoxin vs. initial concentration: <2.88%
[2]; 0.252-0.272 g CaSt powder in 5 mL water, 5.208 EU spiked, 37° C. 1 hour, 0.258 g CaSt powder added
  Percent of detected Endotoxin vs. initial concentration: <8.06%
[2]; 0.252-0.272 g CaSt powder in 5 mL water, 5.208 EU spiked, 37° C. 1 hour, 0.267 g CaSt powder added
  Percent of detected Endotoxin vs. initial concentration: <3.46%
[2]; [10]
  Endotoxin Detected: 12.1 EU
  Percent of detected Endotoxin vs. initial concentration: 0.08%
[2]; [11]
  Endotoxin Detected: 10.3 EU
  Percent of detected Endotoxin vs. initial concentration: 0.07%
[3]; 0.1 grams of calcium stearate and higher, all sources of endotoxin
  percent of endotoxin recovered: under 5%
[3]; Charles River Standard, 8330 EU spiked, 0.007 g Calcium Stearate
  Percent of Endotoxin Detected: 48.0%
[3]; Charles River Standard, 8330 EU spiked, 0.018 g Calcium Stearate
  Percent of Endotoxin Detected: 17.9%
[3]; Charles River Standard, 8330 EU spiked, 0.028 g Calcium Stearate
  Percent of Endotoxin Detected: 2.8%
[3]; [12]
  Endotoxin Detected: 190.5 EU
  Percent of Endotoxin Detected: 2.3%
[3]; [13]
  Endotoxin Detected: 86.5 EU
  Percent of Endotoxin Detected: 1.0%
[3]; [14]
  Endotoxin Detected: 38.5 EU
  Percent of Endotoxin Detected: 0.5%
[3]; [15]
  Endotoxin Detected: 3440 EU
  Percent of Endotoxin Detected: 37.1%
[3]; [16]
  Endotoxin Detected: 28.5 EU
  Percent of Endotoxin Detected: 0.3%
[3]; [17]
  Endotoxin Detected: 960 EU
  Percent of Endotoxin Detected: 22.1%
[3]; [18]
  Endotoxin Detected: 165 EU
  Percent of Endotoxin Detected: 3.8%
[3]; [19]
  Endotoxin Detected: 70 EU
  Percent of Endotoxin Detected: 1.6%
[3]; RRW endotoxin, 4340 EU spiked, 0.35 g Calcium Stearate
  Percent of Endotoxin Detected: 2.6%
[3]; [20]
  Endotoxin Detected: 2780 EU
  Percent of Endotoxin Detected: 25.0%
[3]; SRW endotoxin, 11100 EU spiked, 0.25 g Calcium Stearate
  Percent of Endotoxin Detected: 1.0%
[4]; [21]
  Endotoxin Detected: 3995 EU
  Percent detected Endotoxin: 48.0%
[4]; [22]
  Endotoxin Detected: 5050 EU
  Percent detected Endotoxin: 60.6%
[4]; [23]
  Endotoxin Detected: 1487.5 EU
  Percent detected Endotoxin: 17.9%
[4]; [24]
  Endotoxin Detected: 1545 EU
  Percent detected Endotoxin: 18.5%
[4]; [25]
  Endotoxin Detected: 235 EU
  Percent detected Endotoxin: 2.8%
[4]; [26]
  Endotoxin Detected: 255 EU
  Percent detected Endotoxin: 3.1%
[5]; 0.04 g CaSt in 10 ml LRW sonicated, stored 1 month, initial endotoxin 732.5 EU/mL, 15 min
  Endotoxin EU/mL (15 min after addition of CaSt suspension): 372 EU/mL and 362 EU/mL
[5]; 0.04 g CaSt in 10 ml LRW sonicated, stored 1 month, initial endotoxin 732.5 EU/mL, 30 min
  Endotoxin EU/mL (30 min after addition of CaSt suspension): 384 EU/mL and 278 EU/mL
[5]; sonicated CaSt suspension stored 1 month, 15 min
  Percent Endotoxin Removal (15 min): 49.2% and 50.6%
[5]; sonicated CaSt suspension stored 1 month, 30 min
  Percent Endotoxin Removal (30 min): 47.6% and 62.0%
